Measured values taken from patent publication USRE50528E1, “Compounds and compositions for modulating EGFR mutant kinase activities” (Yuhan Corporation, priority 2014, dated 2025).
Read-outs that look alike come from different tables or passages of the source.

Tests used:
EGFR mutant T790M = target: T1, EGFR mutant T790M (Homo sapiens, UniProt P00533, T790M); experiment: Kinase inhibition assay, EGFR mutant T790M; details: biochemical potency;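 also: truncated human EGFR mutant enzyme preincubated two hours with compound, then ATP plus ULight-PolyGT peptide for one hour, Europium-labeled antibody LANCE detection, IC50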
T1 construct: truncated human JAK3, EGFR mutants such as del E746-A750; purchased Carna Biosciences

[1] = target: T2, EGFR mutant Del19 (E746-A750) (Homo sapiens, UniProt P00533, DEL746-750); experiment: Kinase inhibition assay, EGFR del E746-A750; type: biochemical; details: read-out: EGFR mutants Del19 (E746-A750);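 also: truncated human EGFR mutant kinase, two-hour preincubation with compound, then one-hour reaction with ATP and ULight-PolyGT peptide, LANCE Europium-antibody phosphorylation readout, IC50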
T2 construct: truncated human JAK3, EGFR mutants such as del E746-A750; purchased Carna Biosciences

EGFR mutant L858R = target: T3, EGFR mutant L858R (Homo sapiens, UniProt P00533, L858R); experiment: Kinase inhibition assay, EGFR L858R; type: biochemical; details: read-out: EGFR mutants L858R;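 also: truncated human EGFR L858R kinase with compound preincubation, ULight-PolyGT peptide phosphorylation read by Europium-antibody Lance detection, IC50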
T3 construct: truncated human JAK3, EGFR mutants such as del E746-A750; purchased Carna Biosciences

EGFR mutant L858R/T790M = target: T4, EGFR mutant L858R/T790M (Homo sapiens, UniProt P00533, L858R/T790M); experiment: Kinase inhibition assay, EGFR L858R/T790M; type: biochemical; details: read-out: EGFR mutants L858R/T790M;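 also: truncated human enzyme preincubated two hours with compound, then one hour with one millimolar ATP and ULight-PolyGT peptide, Europium-labeled antibody detection, IC50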
T4 construct: truncated human JAK3, EGFR mutants such as del E746-A750; purchased Carna Biosciences

EGFR mutant Del19/T790M = target: T5, EGFR mutant Del19/T790M (Homo sapiens, UniProt P00533, DEL746-750/T790M); experiment: Kinase inhibition assay, EGFR del E746-A750/T790M; type: biochemical; details: read-out: EGFR mutants Del19/T790M
T5 construct: truncated human JAK3, EGFR mutants such as del E746-A750; purchased Carna Biosciences

SYK = target: T6, SYK (Homo sapiens, UniProt P43405); experiment: Kinase inhibition assay, SYK; type: biochemical; details: biochemical potency;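 also: purified full-length human SYK pre-incubated 30 min with compound, then ULight-TK peptide phosphorylation for 1 h, detected with Europium-labeled antibody in Lance buffer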
T6 construct: Purified human, full-length SYK, KDR; purchased Carna Biosciences

H2073 (EGFR wildtype) = experiment: Cell viability assay, H2073; type: cell-based; details: cellular potency, 72-hour incubation, ATPLite;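 also: NSCLC cell line whose survival relies on wildtype EGFR, treated with serially diluted compound, cytotoxic effect judged from remaining cell viability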
[2] = system: PC9 (EGFR del E746-A750 mutant); experiment: Cell viability assay, PC9; type: cell-based; details: for Selectivity over wildtype, Wildtype vs mutant H2073/PC9 (fold): cellular potency ratio; for IC50: cellular potency, 72-hour incubation, ATPLite, read-out: EGFR Mutants PC9;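 as to all read-outs here: NSCLC PC9 cells, whose viability relies on EGFR del E746-A750, exposed to serially diluted compound for 72 h at 37 °C, ATPLite read-out, IC50, H2073 as EGFR wildtype line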
[3] = system: H1975 (EGFR L858R/T790M mutant); experiment: Cell viability assay, H1975; type: cell-based; details: for Selectivity over wildtype, Wildtype vs mutant H2073/H1975 (fold): cellular potency ratio; for IC50: cellular potency, 72-hour incubation, ATPLite, read-out: EGFR Mutants H1975;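 as to all read-outs here: NSCLC cells whose survival relies on EGFR L858R/T790M, exposed 72 h to serially diluted compound, ATP-based viability readout, with the H2073 line (wildtype EGFR dependent) as wildtype comparator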

Row | Compound | IC50 (EGFR mutant T790M) [nM] | IC50 (SYK) [nM] | IC50 [2] [nM] | IC50 [1] [nM] | IC50 (EGFR mutant L858R) [nM] | IC50 (EGFR mutant L858R/T790M) [nM] | IC50 (EGFR mutant Del19/T790M) [nM] | IC50 (H2073 (EGFR wildtype); NCI-H2073) [nM] | IC50 ([3]; Homo sapiens, NCI-H1975) [nM] | IC50 ([1]; biochemical potency, 1 mM ATP) [nM] | IC50 (EGFR mutant L858R; biochemical potency, 1 mM ATP) [nM] | IC50 (EGFR mutant L858R/T790M; biochemical potency, 1 mM ATP) [nM] | IC50 (EGFR mutant Del19/T790M; biochemical potency, 1 mM ATP) [nM] | IC50 (H2073 (EGFR wildtype)) [nM] | Selectivity over wildtype, Wildtype vs mutant H2073/PC9 (fold) [2] | Selectivity over wildtype, Wildtype vs mutant H2073/H1975 (fold) [3] | IC50 [3] [nM]
1 | 4-(3-((dimethylamino)methyl)-4-methyl-1H-pyrrol-1-yl)-N-(3,5-dimethylphenyl)pyrimidin-2-amine [Compound 146, reference compound] | > 1000 | 20 to 200 | > 1000 | – | – | – | – | – | – | > 1000 | > 1000 | 201 to 1000 | 201 to 1000 | > 1000 | <20 fold | <20 fold | > 1000
2 | C=CC(=O)Nc1cc(Nc2nccc(-n3cc(CN(C)C)c(C(C)(C)C)n3)n2)c(OC)cc1N1CCOCC1 [Compound 86, N-(5-(4-(3-tert-butyl-4-((dimethylamino)methyl)-1H-pyrazol-1-yl)pyrimidin-2-ylamino)-4-methoxy-2-morpholinophenyl)acrylamide] | 20 to 200 | > 1000 | < 20 | < 20 | < 20 | < 20 | < 20 | 201 to 1000 | < 20 | – | – | – | – | – | 20-200 fold | 20-200 fold | –
3 | C=CC(=O)Nc1cc(Nc2nccc(-n3cc(CN(C)C)c(C(C)C)n3)n2)c(OC)cc1N1CCOCC1 [Compound 93, N-(5-(4-(4-((dimethylamino)methyl)-3-isopropyl-1H-pyrazol-1-yl)pyrimidin-2-ylamino)-4-methoxy-2-morpholinophenyl)acrylamide] | < 20 | > 1000 | < 20 | < 20 | < 20 | < 20 | < 20 | 201 to 1000 | < 20 | – | – | – | – | – | 20-200 fold | 20-200 fold | –
4 | CC/C=C\CC(=O)Nc1cc(Nc2nccc(-n3cc(CN(C)C)c(-c4ccccc4)n3)n2)c(OC)cc1N1CCOCC1 [Compound 156, (Z)—N-(5-(4-(4-((dimethylamino)methyl)-3-phenyl-1H-pyrazol-1-yl)pyrimidin-2-ylamino)-4-methoxy-2-morpholinophenyl)hex-3-enamide, reference compound] | – | > 1000 | > 1000 | > 1000 | > 1000 | 201 to 1000 | 20 to 200 | > 1000 | > 1000 | – | – | – | – | – | <20 fold | <20 fold | –

More lines, main results first:

Row | IC50 (EGFR mutant T790M) [nM] | IC50 (SYK) [nM] | IC50 [2] [nM] | IC50 [1] [nM] | IC50 (EGFR mutant L858R) [nM] | IC50 (EGFR mutant L858R/T790M) [nM] | IC50 (EGFR mutant Del19/T790M) [nM] | IC50 (H2073 (EGFR wildtype); NCI-H2073) [nM] | IC50 ([3]; Homo sapiens, NCI-H1975) [nM] | Compound | IC50 ([1]; biochemical potency, 1 mM ATP) [nM] | IC50 (EGFR mutant L858R; biochemical potency, 1 mM ATP) [nM] | IC50 (EGFR mutant L858R/T790M; biochemical potency, 1 mM ATP) [nM] | IC50 (EGFR mutant Del19/T790M; biochemical potency, 1 mM ATP) [nM] | IC50 (H2073 (EGFR wildtype)) [nM] | Selectivity over wildtype, Wildtype vs mutant H2073/PC9 (fold) [2] | Selectivity over wildtype, Wildtype vs mutant H2073/H1975 (fold) [3] | IC50 [3] [nM]
5 | < 20 | > 1000 | < 20 | < 20 | < 20 | < 20 | < 20 | 20 to 200 | < 20 | C=CC(=O)Nc1cc(Nc2nccc(-n3cc(CN(C)C)c(-c4ccccc4)n3)n2)c(OC)cc1N1CCC1 [Compound 84, N-(2-(azetidin-1-yl)-5-(4-(4-((dimethylamino)methyl)-3-phenyl-1H-pyrazol-1-yl)pyrimidin-2-ylamino)-4-methoxyphenyl)acrylamide] | – | – | – | – | – | <20 fold | <20 fold | –
6 | < 20 | > 1000 | < 20 | < 20 | < 20 | < 20 | < 20 | > 1000 | < 20 | C=CC(=O)Nc1cc(Nc2nccc(-n3cc(CN(C)CC)c(-c4ccccc4)n3)n2)c(OC)cc1N1CCOCC1 [Compound 92, N-(5-(4-(4-((ethyl(methyl)amino)methyl)-3-phenyl-1H-pyrazol-1-yl)pyrimidin-2-ylamino)-4-methoxy-2-morpholinophenyl)acrylamide] | – | – | – | – | – | >200 fold | >200 fold | –
